Test results published in paper PMC9503898, “Synthesis and Evaluation of Two Long-Acting SSTR2 Antagonists for Radionuclide Therapy of Neuroendocrine Tumors” (Pharmaceuticals, 2022).
Positions of bridges follow the written chain, without caps; N, C: chain ends. Non-standard residues stand in square brackets, D forms with d. Residues, ends and D or L forms follow the SMILES beside them. *: point of attachment. DOTA = O=C(O)CN1CCN(CC(=O)O)CCN(CC(=O)*)CCN(CC(=O)O)CC1; dPhe(4-NHCONH2) = NC(=O)Nc1ccc(C[C@@H](N)C(=O)O)cc1; Butanoyl(4-(4-I-phenyl)) = O=C(CCCc1ccc(I)cc1)*; Dihydroorotyl(S) = O=C1C[C@@H](C(=O)*)NC(=O)N1; Phe(4-Cl) = N[C@@H](Cc1ccc(Cl)cc1)C(=O)O; Phe(4-NH2) = Nc1ccc(C[C@H](N)C(=O)O)cc1

Key:
Stability in PBS = format: physicochemical; conditions: % intact radiolabeled ligand, ~3 MBq in PBS (300 μL), 37 °C, radio-HPLC, n = 1
Protocol: (§1) The ^177Lu-labeled compounds (~3 MBq) were incubated in PBS (300 μL) at 37 °C. The stability of the radiolabeled peptides was verified by radio-HPLC at 1, 4, and 24 h. The stability in serum was determined by incubating the radiolabeled compounds (~3 MBq) into 150 μL of mouse serum (Merck; Haarlerbergweg, The Netherlands) at 37 °C. At 1, 4, and 24 h post-incubation, the proteins were precipitated by adding an aliquot of 35 μL of the mixture to an equal volume of ACN. The vial was vortexed and centrifuged for 20 min. stability was monitored by radio-HPLC (Figures S4 and S5).

Stability in mouse serum = format: in vitro ADME; conditions: % intact radiolabeled ligand, ~3 MBq in 150 μL mouse serum, 37 °C, ACN protein precipitation, radio-HPLC, n = 1
Protocol: as §1

[1] = Determination of lipophilicity (LogD7.4, shake-flask); format: physicochemical; conditions: n-octanol/PBS (1:1), pH 7.4, PBS/n-octanol 1:1 (1 mL), ~1.5 MBq, gamma counter, n = 3 (triplicate), mean ± SEM, read-out: Log D7.4
Protocol: The distribution coefficient (LogD7.4) of the ^177Lu-labeled peptides was determined by the shake-flask method. For each radioligand, the experiment was performed in triplicate. The radiolabeled compound (~1.5 MBq) was added to a solution of phosphate buffered saline (PBS)/n-octanol (1 mL, v:v = 1:1) in eppendorf vials. The vials were vortexed vigorously and centrifuged at 10,000 rpm for 3 min. The n-octanol phase was separated from the aqueous phase, poured into new vials, and centrifuged for 15 min. Samples from each phase (10 μL) were measured using a gamma counter. The LogD7.4 value was calculated using the following equation: […].

Ex vivo biodistribution = conditions: mouse, iv, 0.5 nmol, total radioactivity
In vivo SPECT/CT imaging = conditions: mouse, H69 xenograft tumor, iv, 20 MBq/0.5 nmol per animal, total radioactivity
[2] = tested on: mice bearing SSTR2-positive H69 xenografts; experiment: In vivo SPECT/CT imaging; conditions: H69 xenograft mice, i.v. 20 MBq/0.5 nmol, n = 4
human albumin = human albumin (Homo sapiens, UniProt P02768); experiment: Albumin binding properties (ultrafiltration); conditions: ~1 MBq in human albumin/PBS (500 µL, v:v = 1:4), 1 h, 37 °C; Centrifree ultrafiltration 30 KDa; gamma counter; n = 3, mean ± SEM
Chain of human albumin (P02768 25-609): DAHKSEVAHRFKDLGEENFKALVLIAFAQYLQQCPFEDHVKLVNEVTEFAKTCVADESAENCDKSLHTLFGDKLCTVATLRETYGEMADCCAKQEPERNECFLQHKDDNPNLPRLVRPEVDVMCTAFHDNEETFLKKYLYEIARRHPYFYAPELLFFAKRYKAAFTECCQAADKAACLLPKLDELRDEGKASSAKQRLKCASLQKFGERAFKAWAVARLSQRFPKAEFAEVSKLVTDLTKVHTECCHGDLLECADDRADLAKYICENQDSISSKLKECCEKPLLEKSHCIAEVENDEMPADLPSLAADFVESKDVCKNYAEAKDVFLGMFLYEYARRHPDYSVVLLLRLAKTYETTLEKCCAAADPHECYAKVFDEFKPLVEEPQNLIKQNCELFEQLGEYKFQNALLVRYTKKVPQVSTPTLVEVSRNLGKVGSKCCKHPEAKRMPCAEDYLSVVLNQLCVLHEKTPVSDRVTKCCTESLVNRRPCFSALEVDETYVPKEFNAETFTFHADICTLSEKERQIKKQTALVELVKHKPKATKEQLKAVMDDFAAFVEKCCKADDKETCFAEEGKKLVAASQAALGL

**Q.** Which results are given for `C[C@@H](O)[C@@H]1NC(=O)[C@H](CCCCN)NC(=O)[C@@H](Cc2ccc(NC(N)=O)cc2)NC(=O)[C@H](Cc2ccc(NC(=O)[C@@H]3CC(=O)NC(=O)N3)cc2)NC(=O)[C@H](NC(=O)[C@H](Cc2ccc(Cl)cc2)NC(=O)[C@H](CCCCNC(=O)CCCc2ccc(I)cc2)NC(=O)CN2CCN(CC(=O)O)CCN(CC(=O)O)CCN(CC(=O)O)CC2)CSSC[C@@H](C(=O)N[C@H](Cc2ccc(O)cc2)C(N)=O)NC1=O` [[^177Lu]Lu-8a, metal not drawn] ({DOTA}-K(Butanoyl(4-(4-I-phenyl)))[Phe(4-Cl)][dC][Phe(4-NH2)](Dihydroorotyl(S))[dPhe(4-NHCONH2)]KTC[dY]-NH2; disulfide 3-8)?
**A.** Stability in PBS (%) 1 h (Stability in PBS; 1 h): 96.5%; Stability in PBS (%) 4 h (Stability in PBS; 4 h): 96.5%; Stability in PBS (%) 24 h (Stability in PBS; 24 h): 97.2%; remaining at 1 h (Stability in mouse serum; 1 h): 97.3%; remaining at 4 h (Stability in mouse serum; 4 h): 98.4%; remaining at 24 h (Stability in mouse serum; 24 h): 98.5%; logD [1]: -1.6 ± 0.03; tissue uptake at 4 h (Ex vivo biodistribution; blood): 21.3 ± 1.1 %ID/g; tissue uptake at 24 h (Ex vivo biodistribution; blood): 18.1 ± 4.2 %ID/g; tissue uptake at 48 h (Ex vivo biodistribution; blood): 12.9 ± 1.2 %ID/g; tissue uptake at 72 h (Ex vivo biodistribution; blood): 8.6 ± 0.5 %ID/g; tissue uptake at 4 h (Ex vivo biodistribution; bone marrow): 1.2 ± 2 %ID/g; tissue uptake at 4 h (Ex vivo biodistribution; bone): 1.3 ± 1.8 %ID/g; tissue uptake at 24 h (Ex vivo biodistribution; bone): 1.5 ± 1.1 %ID/g; tissue uptake at 48 h (Ex vivo biodistribution; bone): 0.9 ± 0.4 %ID/g; tissue uptake at 72 h (Ex vivo biodistribution; bone): 1.2 ± 1 %ID/g; tissue uptake at 4 h (Ex vivo biodistribution; heart): 7.6 ± 1.2 %ID/g; tissue uptake at 24 h (Ex vivo biodistribution; heart): 5.1 ± 0.7 %ID/g; tissue uptake at 48 h (Ex vivo biodistribution; heart): 4.8 ± 0.5 %ID/g; tissue uptake at 72 h (Ex vivo biodistribution; heart): 3.9 ± 0.7 %ID/g; tissue uptake at 4 h (Ex vivo biodistribution; intestine): 2.5 ± 0.2 %ID/g; tissue uptake at 24 h (Ex vivo biodistribution; intestine): 1.7 ± 0.1 %ID/g; tissue uptake at 48 h (Ex vivo biodistribution; intestine): 1.4 ± 0.1 %ID/g; tissue uptake at 72 h (Ex vivo biodistribution; intestine): 1.1 %ID/g; tissue uptake at 4 h (Ex vivo biodistribution; kidney): 9.6 ± 1.2 %ID/g; tissue uptake at 24 h (Ex vivo biodistribution; kidney): 18.4 ± 1.9 %ID/g; tissue uptake at 48 h (Ex vivo biodistribution; kidney): 22.6 ± 1.9 %ID/g; tissue uptake at 72 h (Ex vivo biodistribution; kidney): 21.6 ± 1.4 %ID/g; tissue uptake at 4 h (Ex vivo biodistribution; liver): 4.6 ± 1.2 %ID/g; tissue uptake at 24 h (Ex vivo biodistribution; liver): 3.7 ± 0.2 %ID/g; tissue uptake at 48 h (Ex vivo biodistribution; liver): 3.6 ± 0.2 %ID/g; tissue uptake at 72 h (Ex vivo biodistribution; liver): 2.9 ± 0.3 %ID/g; tissue uptake at 4 h (Ex vivo biodistribution; lung): 9.9 ± 2.9 %ID/g; tissue uptake at 24 h (Ex vivo biodistribution; lung): 7.5 ± 0.6 %ID/g; tissue uptake at 48 h (Ex vivo biodistribution; lung): 7.2 ± 0.3 %ID/g; tissue uptake at 72 h (Ex vivo biodistribution; lung): 6 ± 0.5 %ID/g; tissue uptake at 4 h (Ex vivo biodistribution; muscle): 0.8 ± 1.1 %ID/g; tissue uptake at 24 h (Ex vivo biodistribution; muscle): 1.1 ± 0.1 %ID/g; tissue uptake at 48 h (Ex vivo biodistribution; muscle): 1.2 ± 0.5 %ID/g; tissue uptake at 72 h (Ex vivo biodistribution; muscle): 0.8 ± 0.1 %ID/g; tissue uptake at 4 h (Ex vivo biodistribution; pancreas): 7.2 ± 0.3 %ID/g; tissue uptake at 24 h (Ex vivo biodistribution; pancreas): 6.6 ± 0.3 %ID/g; tissue uptake at 48 h (Ex vivo biodistribution; pancreas): 6.3 ± 0.7 %ID/g; tissue uptake at 72 h (Ex vivo biodistribution; pancreas): 5.3 ± 1.2 %ID/g; tissue uptake at 4 h (Ex vivo biodistribution; skin): 5.9 ± 1.1 %ID/g; tissue uptake at 24 h (Ex vivo biodistribution; skin): 5.4 ± 0.9 %ID/g; tissue uptake at 48 h (Ex vivo biodistribution; skin): 6.3 ± 1.6 %ID/g; tissue uptake at 72 h (Ex vivo biodistribution; skin): 4.8 ± 0.3 %ID/g; tissue uptake at 4 h (Ex vivo biodistribution; spleen): 3.2 ± 0.7 %ID/g; tissue uptake at 24 h (Ex vivo biodistribution; spleen): 3.8 ± 0.4 %ID/g; tissue uptake at 48 h (Ex vivo biodistribution; spleen): 5.8 ± 0.6 %ID/g; tissue uptake at 72 h (Ex vivo biodistribution; spleen): 5.4 ± 0.2 %ID/g; tissue uptake at 4 h (Ex vivo biodistribution; stomach): 3.8 ± 0.4 %ID/g; tissue uptake at 24 h (Ex vivo biodistribution; stomach): 3.1 ± 1.4 %ID/g; tissue uptake at 48 h (Ex vivo biodistribution; stomach): 3.3 ± 1.2 %ID/g; tissue uptake at 72 h (Ex vivo biodistribution; stomach): 3 ± 0.5 %ID/g; tissue uptake at 4 h (Ex vivo biodistribution; tumor): 4.1 ± 0.5 %ID/g; tissue uptake at 24 h (Ex vivo biodistribution; tumor): 6.5 ± 0.2 %ID/g; tissue uptake at 48 h (Ex vivo biodistribution; tumor): 7.3 ± 0.4 %ID/g; tissue uptake at 72 h (Ex vivo biodistribution; tumor): 7.3 ± 0.9 %ID/g; tissue uptake per volume at 4 h (In vivo SPECT/CT imaging): 3.7 ± 0.9 %ID/mL; tissue uptake per volume at 24 h (In vivo SPECT/CT imaging): 4.9 ± 0.5 %ID/mL; tissue uptake per volume at 48 h (In vivo SPECT/CT imaging): 5.7 ± 0.6 %ID/mL; tissue uptake per volume at 72 h (In vivo SPECT/CT imaging): 4.9 ± 0.3 %ID/mL; SPECT quantification, kidneys (K), 4 h ([2]; 4 h post-injection): 7.7 ± 0.9 % ID/mL; SPECT quantification, kidneys (K), 24 h ([2]; 24 h post-injection): 10.1 ± 0.8 % ID/mL; SPECT quantification, kidneys (K), 48 h ([2]; 48 h post-injection): 10.1 ± 0.3 % ID/mL; SPECT quantification, kidneys (K), 72 h ([2]; 72 h post-injection): 8.9 ± 0.2 % ID/mL; Protein-Bound Fraction (%) (human albumin): 89.5 ± 0.8%
